According to patent publication US20070259933A1, “COMPOSITIONS, DOSAGE FORMS AND METHODS OF TREATING EMESIS” (XenoPort, Inc., priority 2006, published 2007):
Read-outs that look alike come from different tables or passages of the source.

Assays:
[1] = cited from earlier work
[2] = Regional gastrointestinal absorption of propofol prodrug; type: in vivo; conditions: oral; colon vs upper gastrointestinal tract
[3] = orally administered propofol; dose-normalized oral vs intravenous; cited from earlier work
[4] = oral dosing, rats; cited from earlier work
[5] = test system: sedation / general anesthesia; conditions: in vivo; cited from earlier work
[6] = oral dose of 25-200 mg dolasetron
[7] = oral dose of 5-20 mg granisetron

For `CN1[C@@H]2CC[C@H]1C[C@@H](OC(=O)c1c[nH]c3ccccc13)C2` [tropisetron], the AUC ([1]; oral dose of 5 mg tropisetron) is given as “about 230 ng·mL·h^−1”, the maximum plasma concentration ([1]; oral dose of 5 mg tropisetron) is given as “about 22 ng/mL” and the oral bioavailability ([1]; oral dose of 5 mg tropisetron) is given as 60-99%. For the same molecule, the terminal elimination half-life ([1]; oral dose of 5 mg tropisetron) was 8.6 h.

In the case of `O=C(O[C@@H]1C[C@@H]2C[C@H]3C[C@H](C1)N2CC3=O)c1c[nH]c2ccccc12` [dolasetron], the AUC [1, 6] is listed as “about 1,233 ng·mL·h^−1”, the oral bioavailability [1, 6] is listed as 70-89% and the terminal elimination half-life [1, 6] is listed as 5 to 10 h.

In the case of `CC(C)c1cccc(C(C)C)c1OC(=O)OC[C@H](N)C(=O)O` [(S)-2-amino-3-(2,6-diisopropylphenoxycarbonyloxy)-propanoic acid], the gastrointestinal absorption [2] is reported as “limited colonic absorption”.

In the case of `CN1C2CCCC1CC(NC(=O)c1nn(C)c3ccccc13)C2` (stereo not shown) [granisetron], the AUC [1, 7] is listed as 83 to 350 ng·mL/h, the maximum plasma concentration [1, 7] is listed as 14 to 68 ng/mL and the terminal elimination half-life [1, 7] is listed as 1.5 to 5.7 h.

In the case of `Cc1nccn1CC1CCc2c(c3ccccc3n2C)C1=O` (stereo not shown) [ondansetron], the AUC ([1]; oral dose of 8 mg ondansetron) is given as 101 to 351 ng·mL/h, the maximum plasma concentration ([1]; oral dose of 8 mg ondansetron) is given as 20 to 52 ng/mL and the oral bioavailability ([1]; oral dose of 8 mg ondansetron) is given as 48-75%. For the same molecule, the terminal elimination half-life ([1]; oral dose of 8 mg ondansetron) was 2.5 to 6.2 h.

In the case of `CC(C)c1cccc(C(C)C)c1O` [propofol, 2,6-diisopropylphenol], the absolute oral bioavailability [3] is listed as “less than 2%”, the “fraction of administered drug undergoing first pass metabolism” value [4] is listed as “approximately 90%” and the “propofol plasma concentrations needed for sedation” value [5] is listed as 1,500-2,000 ng/mL. The “propofol plasma concentrations needed for the maintenance of general anesthesia” value [5] was 3,000-10,000 ng/mL.
